In PubChem BioAssay AID262 (DTP/NCI, 2004) one finds T/C data, which are given here for 21 molecules.

For orientation: T/C means the result in the treated group divided by that in the control group, in per cent.

This test deals with LX-1 lung xenograft sc, nude mice, tumor weight. Nature of the test: NCI In Vivo Anticancer Drug Screen. Data for tumor model Human Lung LX-1 Xenograft (subcutaneous) in NU/NU Swiss (nude) mice. The note with it: endpoint: optimum tumor weight change, higher = larger tumour. The protocol: The antitumor activity of compounds was measured in mice bearing transplantable tumors. Survival or tumor size were measured and the results are expressed as the measurement made in the treated group (T) divided by the measurement made in the vehicle treated control group (C). The tumor model used in this assay is Human Lung LX-1 Xenograft (subcutaneous) in NU/NU Swiss (nude) mice

Where [1] appears, read: dose: 400.0 mg/kg/injection, schedule: Q04DX003 (ip), vehicle: saline.
The mark [2] stands for this setting: dose: 400.0 mg/kg/injection, schedule: Q04DX003 (ip), vehicle: suspension in saline.
Setting [3] is: dose: 200.0 mg/kg/injection, schedule: Q04DX003 (ip), vehicle: suspension in saline.
[4] abbreviates: dose: 100.0 mg/kg/injection, schedule: Q04DX003 (ip), vehicle: saline with Tween-80.
[5] abbreviates: dose: 12.5 mg/kg/injection, schedule: Q04DX003 (ip), vehicle: saline.
[6] abbreviates: dose: 25.0 mg/kg/injection, schedule: Q04DX003 (ip), vehicle: saline.
The mark [7] stands for this setting: dose: 6.0 mg/kg/injection, schedule: Q04DX003 (ip), vehicle: saline with Tween-80.

Structures are written as SMILES. Values joined by “and” are separate entries in the source; they are usually repeats but may differ in a detail not shown here. Identical values can stand only once.

`N=c1ccn2c(n1)OC1C(O)C(CO)OC12` (centres undefined): the T/C (dose: 200.0 mg/kg/injection, schedule: Q04DX003 (ip), vehicle: saline) was 66 % of control; the T/C under setting [1] was 83 % of control; the T/C under setting [2] was 45 % of control and 61 % of control; the T/C (dose: 800.0 mg/kg/injection, schedule: Q04DX003 (ip), vehicle: saline) was 41 % of control; the T/C (dose: 800.0 mg/kg/injection, schedule: Q04DX003 (ip), vehicle: suspension in saline) was 17 % of control; the T/C (dose: 1600.0 mg/kg/injection, schedule: Q04DX003 (ip), vehicle: saline) was 18 % of control. In addition, for the setting “dose: 1600.0 mg/kg/injection, schedule: Q04DX003 (ip), vehicle: suspension in saline”, the T/C was 27 % of control.

As for `O=NN(CCCl)C(=O)NC1CCC(=O)NC1=O` (centres undefined), the T/C (dose: 5.0 mg/kg/injection, schedule: Q04DX003 (ip), vehicle: saline with Tween-80) is 49 % of control.

Regarding `Cc1c(N)nc([C@H](CC(N)=O)NC[C@H](N)C(N)=O)nc1C(=O)N[C@H](C(=O)N[C@H](C)[C@@H](O)[C@H](C)C(=O)N[C@H](C(=O)NCCc1nc(-c2nc(C(=O)NCCC[S+](C)C)cs2)cs1)[C@@H](C)O)C(OC1OC(CO)C(O)C(O)C1OC1OC(CO)C(O)C(OC(N)=O)C1O)c1cnc[nH]1` (some centres undefined), the T/C was 45 % of control (dose: 3.75 mg/kg/injection, schedule: Q04DX003 (ip), vehicle: saline); 70 % of control (dose: 4.0 mg/kg/injection, schedule: Q04DX003 (ip), vehicle: saline); 49 % of control and 56 % of control and 63 % of control (dose: 16.0 mg/kg/injection, schedule: Q04DX003 (ip), vehicle: saline); 33 % of control and 55 % of control (dose: 30.0 mg/kg/injection, schedule: Q04DX003 (ip), vehicle: saline); 8 % of control and 21 % of control (dose: 60.0 mg/kg/injection, schedule: Q04DX003 (ip), vehicle: saline).

Take `CC(=O)OCC1OC(n2ccc(N)nc2=O)C(OC(C)=O)C1OC(C)=O` (centres undefined): the T/C is, setting by setting: under setting [3], 102 % of control; under setting [2], 78 % of control.

Take `CC(=O)Oc1ccc[nH]c1=O`: the T/C (dose: 50.0 mg/kg/injection, schedule: Q04DX003 (ip), vehicle: saline with Tween-80) was 91 % of control; the T/C under setting [4] was 81 % of control; the T/C (dose: 400.0 mg/kg/injection, schedule: Q04DX003 (ip), vehicle: saline with Tween-80) was 76 % of control; the T/C (dose: 800.0 mg/kg/injection, schedule: Q04DX003 (ip), vehicle: saline with Tween-80) was 73 % of control.

Turning to `COc1cccc2c1C(=O)c1c(O)c3c(c(O)c1C2=O)C[C@@](O)(C(C)=O)C[C@@H]3OC1CC(N)C(O)C(C)O1` (some centres undefined), the T/C runs as follows: (dose: 0.25 mg/kg/injection, schedule: Q04DX003 (ip), vehicle: saline) 52 % of control; (dose: 0.5 mg/kg/injection, schedule: Q04DX003 (ip), vehicle: saline) 39 % of control; (dose: 1.0 mg/kg/injection, schedule: Q04DX003 (ip), vehicle: saline) 86 % of control.

Consider `CN(C)N=Nc1ccccc1`, for which the T/C reads like this: (dose: 12.5 mg/kg/injection, schedule: Q04DX003 (ip), vehicle: Klucel (hydroxypropylcellulose) (HPC)) 94 % of control; (dose: 25.0 mg/kg/injection, schedule: Q04DX003 (ip), vehicle: Klucel (hydroxypropylcellulose) (HPC)) 61 % of control and 79 % of control.

Take `CNC(=O)ON(C(C)=O)C(=O)NC`: the T/C under setting [5] was 94 % of control; the T/C under setting [6] was 103 % of control; the T/C (dose: 50.0 mg/kg/injection, schedule: Q04DX003 (ip), vehicle: saline) is 71 % of control; the T/C (dose: 100.0 mg/kg/injection, schedule: Q04DX003 (ip), vehicle: saline) is 60 % of control.

As for `NC(Cc1ccc(N(CCCl)CCCl)cc1)C(=O)O` (centres undefined), the T/C (dose: 5.0 mg/kg/injection, schedule: Q04DX003 (ip), vehicle: Klucel (hydroxypropylcellulose) (HPC)) was 66 % of control.

For the molecule `CN1CCN(CCCN2c3ccccc3Sc3ccc(C(F)(F)F)cc32)CC1`, the T/C (dose: 6.25 mg/kg/injection, schedule: Q04DX003 (ip), vehicle: saline) is 63 % of control; the T/C under setting [5] was 78 % of control; the T/C under setting [6] is 84 % of control.

With `COc1cc2c[n+](C)c3c4cc5c(cc4ccc3c2cc1OC)OCO5`, the T/C is 105 % of control (dose: 20.0 mg/kg/injection, schedule: Q04DX003 (ip), vehicle: saline with Tween-80); 34 % of control (dose: 40.0 mg/kg/injection, schedule: Q04DX003 (ip), vehicle: saline with Tween-80); 54 % of control (dose: 80.0 mg/kg/injection, schedule: Q04DX003 (ip), vehicle: saline with Tween-80).

Regarding `C=CC(=O)N1CN(C(=O)C=C)CN(C(=O)C=C)C1`, the T/C (dose: 1.5 mg/kg/injection, schedule: Q04DX003 (ip), vehicle: saline with Tween-80) is 89 % of control; the T/C (dose: 3.0 mg/kg/injection, schedule: Q04DX003 (ip), vehicle: saline with Tween-80) is 62 % of control; the T/C under setting [7] was 80 % of control.

For the molecule `Cn1cnc([N+](=O)[O-])c1[Se]c1nc(N)nc2nc[nH]c12`, the T/C (dose: 25.0 mg/kg/injection, schedule: Q04DX003 (ip), vehicle: water) is 77 % of control; the T/C (dose: 50.0 mg/kg/injection, schedule: Q04DX003 (ip), vehicle: water) was 54 % of control; the T/C (dose: 100.0 mg/kg/injection, schedule: Q04DX003 (ip), vehicle: water) is 49 % of control.

For `O=C1N(Cl)C(=O)C(c2ccc(Cl)cc2)(c2ccc(Cl)cc2)N1Cl`, the T/C under setting [4] was 66 % of control and the T/C (dose: 200.0 mg/kg/injection, schedule: Q04DX003 (ip), vehicle: saline with Tween-80) is 42 % of control.

In the case of `Cc1c(CNc2ccc(C(=O)NC(CC(=O)O)C(=O)O)cc2)ccc2nc(N)nc(N)c12` (centres undefined), the T/C under setting [7] was 63 % of control; the T/C (dose: 12.0 mg/kg/injection, schedule: Q04DX003 (ip), vehicle: saline with Tween-80) is 94 % of control; the T/C (dose: 24.0 mg/kg/injection, schedule: Q04DX003 (ip), vehicle: saline with Tween-80) is 81 % of control.

As for `O=CC(S)CO` (centres undefined), the T/C under setting [3] is 99 % of control.

On to `N[C@@H](Cc1ccc(N(CCCl)CCCl)cc1)C(=O)O`, for which the T/C (dose: 4.0 mg/kg/injection, schedule: Q04DX003 (ip), vehicle: suspension in saline) was 81 % of control and 87 % of control; the T/C (dose: 8.0 mg/kg/injection, schedule: Q04DX003 (ip), vehicle: suspension in saline) was 56 % of control.

Regarding `COc1cc([C@@H]2c3cc4c(c(O)c3C[C@H]3COC(=O)[C@@H]32)OCO4)cc(OC)c1OC`, the T/C (dose: 2.5 mg/kg/injection, schedule: Q04DX003 (ip), vehicle: saline) is 107 % of control; the T/C (dose: 5.0 mg/kg/injection, schedule: Q04DX003 (ip), vehicle: saline) was 73 % of control; the T/C (dose: 10.0 mg/kg/injection, schedule: Q04DX003 (ip), vehicle: saline) was 86 % of control; the T/C (dose: 20.0 mg/kg/injection, schedule: Q04DX003 (ip), vehicle: saline) was 64 % of control.

As to `NC(=O)c1ccc[n+](Cc2c(Cl)cccc2Cl)c1`, the T/C was 47 % of control (dose: 24.0 mg/kg/injection, schedule: Q04DX003 (ip), vehicle: saline) and 68 % of control (dose: 48.0 mg/kg/injection, schedule: Q04DX003 (ip), vehicle: saline).

With `N[C@H](C(=O)O)[C@@H]1CC(Cl)=NO1`, the T/C is 31 % of control (dose: 8.0 mg/kg/injection, schedule: Q01DX009 (ip), vehicle: saline); 17 % of control (dose: 16.0 mg/kg/injection, schedule: Q01DX009 (ip), vehicle: saline); 24 % of control (dose: 32.0 mg/kg/injection, schedule: Q01DX009 (ip), vehicle: saline); 36 % of control (dose: 100.0 mg/kg/injection, schedule: Q04DX003 (ip), vehicle: suspension in saline); 27 % of control under setting [3]; 6 % of control under setting [1]. Besides, the T/C under setting [2] is 15 % of control.

Consider `COC1C(O)CC(OC2CC(OC3CC(O[C@@H]4C(=O)c5c(cc6cc(OC7CC(OC8CC(O)C(O)C(C)O8)C(O)C(C)O7)c(C)c(O)c6c5O)C[C@H]4[C@H](OC)C(=O)[C@@H](O)[C@@H](C)O)OC(C)C3O)OC(C)C2O)OC1C` (some centres undefined), for which the T/C was 104 % of control (dose: 0.75 mg/kg/injection, schedule: Q04DX003 (ip), vehicle: saline); 53 % of control and 62 % of control (dose: 1.5 mg/kg/injection, schedule: Q04DX003 (ip), vehicle: saline).
